Experimental data as given in patent US9724416B2, “Composition for improving or promoting hair growth containing, as active ingredients, photosensitizer irradiated with light and peptide, and method using same” (GWANGJU INSTITUTE OF SCIENCE AND TECHNOLOGY, priority 2012, dated 2017).
Entries after “also recorded” stand apart in the source; their conditions may differ.

Tests used:
C57BL/6N mouse [1] = experiment: Hair growth promoting effects using a mouse (second test); type: in vivo
Procedure: A 10-fold volume of primary distilled water was put into 100 g of Cimicifuga heracleifolia, Baikl skullcap, and Lance Asiabell dry matters, which were hot water extracted for 6 hours at 100° C. and were then filtered. The filtered extracts were pulverized through freeze-dried and then stored at 4° C. until used. The pulverized natural extracts were used in a mouse experiment at a concentration of 1 mg/ml.
(§1) ALA and ALA-peptide which were major test materials of the present invention were dissolved in pure water to a concentration of […] (100 ppm) to be used.
A 7-week-old C57BL/6N mouse was used for this study, and hair of the mouse's back was completely removed using a wax at the age of 49 days to 51 days at which the C57BL/6N mouse enters […] for the second time. In order to verify hair growth promoting effects of the test materials, it was treated once a day for 24 days. More particularly, the ALA and ALA-peptide were sprayed 3 times before LED radiation, and the LED treated groups were verified after treated for 5 minutes.

C57BL/6N mouse [2] = experiment: Hair growth promoting effects using a mouse (first test); type: in vivo; details: for hair growth amounts compared to the control group: FIGS. 7 and 8 (day 10, day 12); for hair growth promoting effects with the naked eye compared to the untreated group: day 5 after sample treatment; for hair growth promoting effects compared to the untreated group: day 8 after sample treatment (FIG. 6B); for hair growth levels: until day 3, compared across groups incl. untreated
Procedure: as §1
A 7-week-old C57BL/6N mouse (Jungang Lab. Animal Inc., KOR) was used for this study, and hair of the mouse's back was completely removed using a wax at the age of 49 days to 51 days at which the C57BL/6N mouse enters […] for the second time. In order to verify hair growth promoting effects of the test materials, it was treated once a day for 24 days. More particularly, ALA and the ALA-peptide were sprayed 3 times before LED radiation, and the LED treated groups were verified after being treated for 5 minutes.

Row | Molecule | hair growth promoting effects compared to the untreated group (in words) (C57BL/6N mouse [1]; LED-Red radiation, day 9 after sample treatment) | hair growth amounts compared to the untreated group (C57BL/6N mouse [1]; LED-Red radiation, extracts 1 mg/ml) | hair growth levels compared to untreated group (C57BL/6N mouse [1]; without LED radiation, FIGS. 16 to 19 (day 0 to day 7)) | hair growth amounts compared to the control group (C57BL/6N mouse [2]; LED-Blue radiation) | hair growth promoting effects with the naked eye compared to the untreated group (C57BL/6N mouse [2]; LED-Blue radiation) | hair growth promoting effects compared to the untreated group (C57BL/6N mouse [2]; LED-Blue radiation) | hair growth promoting effects through continuous treatments (C57BL/6N mouse [2]; LED-Red radiation compared to LED-Blue radiation, FIGS. 9 to 14 (day 14 to day 24)) | hair growth amounts compared to the control group (C57BL/6N mouse [2]; LED-Red radiation) | hair growth promoting effects with the naked eye compared to the untreated group (C57BL/6N mouse [2]; LED-Red radiation) | hair growth promoting effects compared to the untreated group (C57BL/6N mouse [2]; LED-Red radiation) | hair loss phenomenon compared to other treated groups (C57BL/6N mouse [2]; LED-Blue radiation, day 30 of observation (FIG. 15)) | hair growth levels (C57BL/6N mouse [2]; LED-Blue radiation) | hair growth levels (C57BL/6N mouse [2]; LED-Red radiation)
1 | 5-Aminolevulinic Acid (ALA)-Peptide (GHK) [ALA-peptide] | significant hair growth promoting effects | increasing effects in the significant hair growth amounts | little differences in hair growth levels | significant hair growth promoting effects | distinct differences | about 7 fold | more superior hair growth promoting effects than the LED-Blue+ALA-peptide treated group | significant hair growth promoting effects; also recorded: most superior hair growth promoting effect | distinct differences | about 10 fold |  |  | 
2 | Cl.NCC(=O)CCC(=O)O [ALA, 5-aminolevulinic acid, reference compound] |  |  |  |  |  |  |  |  |  |  | considerable hair loss phenomenon | no differences in hair growth levels | no differences in hair growth levels
